How the values were obtained:
human thrombocytes = assay: Aggregation of thrombocytes induced by arachidonic acid in vitro; type: cell-based; details: Table 2; 0.06 mg per tube
Description: We studied the anti-inflammatory action of nucleic acids on the model of thrombocyte aggregation in vitro by the method of Born (Born L.V.R. The aggregation of blood platelets by diphosphate and its reversal, Nature, […], P. 327, 1962). Venous human blood was taken in silicon tubes of Becton Dickson, which contained a 3.8% solution of sodium citrate. In order to receive thrombocytic-rich plasma, citrate blood was centrifuged at 1500 rev/mm for 7 minutes. Plasma free of thrombocytes was obtained by centrifuging 2.0 ml of plasma taken from medium layers for 15 minutes at 3000 rev/mm. We counted the number of thrombocytes in the thrombocytic-containing plasma, which was later diluted by the thrombocyte-free plasma to the final concentration […].
An Aggregometer produced by “Tromlite” (Poland) was used for thrombocyte aggregation. In order to induce aggregation, arachidonic acid was diluted in Michaelis buffer in the proportion 1 mg/ml. Two tubes were inserted in the aggregometer, one of which contained 0.2 ml of thrombocyte-containing plasma, while the other one had 0.2 ml of thrombocyte-free plasma and 0.1 ml of isotonic solution of sodium chloride. […] Then, the light-transparency of thrombocyte-containing plasma was measured during 5 minutes, which indicated the stage of thrombocyte aggregation. […]

[1] = system: carrageenan-induced swelling of leg; assay: Local inflammation (leg swelling) provoked by carrageenan in mice; type: in vivo, BALB-line mice; details: for % inhibition of swelling: 0.4 mg per mouse (20 mg/kg), 20 mg/kg
Description: To study the anti-inflammatory action of drugs, we used the model of local inflammation in mice. Inflammation in BALB-line mice was modeled with the help of carrageenan, a classical phlogogenic agent. 30 minutes before the injection, the mice were injected intra-abdominally with drug, which was dissolved in […] of physiological solution (PS). Carrageenan […] produced by Serva Fein Biochemica (Germany) was prepared in the form of a 1% solution in PS. The obtained viscous solution, 40 mcl, was injected subplantally in the left back leg. The right, intact leg was taken as control. 4 hours later after the carrageenan injection, the mice were killed via decapitation, and their back legs were detached from the bodies on the same level, a little higher the ankles. After that, the legs were carefully weighted, with 1 mg accuracy. Obtained results were statistically processed by the MultiFac 2.2. SPSS 8/0 software. The anti-inflammatory effect of the drug was calculated by the formula:
[formula] • Vk—average increase of volume (mass) of the swollen leg in control mice • Vo—average increase of volume (mass) of the swollen leg in treated mice
In the first test, mice were divided into 8 groups. The first group consisted of control animals, which were injected intra-abdominally with 2 ml of PS. Also, […] of PS was injected in the left leg. This group was studied to determine the influence of injection on the course of inflammation in a leg. The second group, control with LPS, took […] of PS intra-abdominally and received LPS injections in the left leg. The third group took […] of aspirin dissolved in PS in the concentration 0.4 mg per mouse. In the fourth, fifth and sixth groups, yeast RNA-D was dissolved in PS in respective concentrations 5, 10, and 15 mg in 2 ml of PS per animal. LPS was injected in the left leg to provoke swelling. The seventh and eighth groups were treated respectively by DNA-TC and DNA-EC, which were injected in the concentration 15 mg per mouse, as explained above for RNA-treated groups.
The right legs were left intact. 4 hours later, the animals were decapitated. […]

NO-synthetase (NOS) [2] = assay: NOS activity in mouse blood plasma after carrageenan injection; type: in vivo; details: 320 min after carrageenan; LPS control 110.48
Description: (§1) […] We tested the influence of yeast RNA on the activity of NO-synthetase ferment (NOS) in blood plasma and in erythrocytes, as well as on the content in blood plasma of free arachidonic acid and products of its oxide metabolism, carried out in lypoxygenase (leukotriene C4 (LTC4)) and cyclooxygenase (thromboxane B2 (T×B2)) ways.
(§2) The activity in blood plasma and erythrocytes of the enzyme NO-synthetase was measured by colometric method applied to the outcome of reaction, nitrite anion. (Yan L., Vandivier R. W., Suffredini A. F., Danner R. L., Human polymorphonuclear leukocytes lack detectable nitric oxide synthetase activity. J. Immunol., 15; 153(4): 1825–1834; 1994). […] The reaction was initiated by adding 0.1 ml of a probe containing 500 microgram of general protein determined by Bredford method. […]
(§3) Nitrite anion was determined using the reagent of Gris in colometric reaction as decribed in Green et al. (Green L. C., Waagner D. A., Glogowski J. et al., Analysis of nitrate, nitrite and [15N] nitrate in biological fluids, Anal. Biochem., 126(1): 131–138;1982). […] In 5 minutes after mixing, the extinction at 543 hm was measured. The quantity of NO2 was measured by standard curve built for NaNO2.

NO-synthetase (NOS) [3] = assay: NOS activity in mouse erythrocytes after carrageenan injection; type: in vivo; details: 320 min after carrageenan; LPS control 2.232
Description: as §1, §2, §3

free arachidonic acid = assay: Free arachidonic acid in mouse blood plasma after carrageenan injection; type: in vivo; details: 320 min after carrageenan; LPS control 3.37
Description: as §1
(§4) The content of free arachidonic acid (AA) was measured by two-dimensional thin-layer chromatography (TLC) as discussed in Tsunamoto et al. (Tsunamoto K., Todo S., Imashuku S. Separation of prostaglandines and thromboxane by two-dimensional thin-layer chromatography. J. Chromatog. 3; 417(2); 414–419; 1987. The content of stable metabolite of thromboxane A2 (TXB2) was studied in probes by radio-immune method with TXB2 [^3H] RIA Kit, by Amersham International PLC (England) (McCann D. S., Tokarsky J., Sorkin R. P., Radioimmunoassay for plasma thromboxane B2. Clin. Chem., 27(8): 1417–1420, 1981). The content of LTC4 was tested in probes by radio-immune method with LTC4 [^3H] RIA Kit by Du Pont Ltd. Hertfordshire, (UK) (Levine L., Morgan R. A., Levis R. A. et al., Radioimmunoassay of the leukotrienes of slow reactivity substance of anaphylaxis. Proc. Natl. Acad. Sci. USA. 78(12): 7692–7696; 1981).

thromboxane B2 = assay: Thromboxane B2 in mouse blood plasma after carrageenan injection; type: in vivo; details: 320 min after carrageenan; LPS control 358.240
Description: as §1, §4

leukotriene C4 = assay: Leukotriene C4 in mouse blood plasma after carrageenan injection; type: in vivo; details: 320 min after carrageenan; LPS control 226.78
myeloperoxydase = assay: Myeloperoxydase activity in the ischemized part of myocardium; type: in vivo, rats; details: 30 minutes occlusion, 1 hour reperfusion; control 211.8+16.7
Source text: The mieloperoxydase activity (MPA) was studied in myocardium using the method of Bradley et al. (Bradley P. P., Priebet D. A., Christensen R. D. et al., Measurement of cutateous inflammation: estimation of neutrophil content with an enzyme marker, J. Invest. Dermatol., 78(3): 206–209; 1982) in the modification by Grisfwold et al. (Griswold D. E., Hillegass L. M., Hill D. E. et al., Method for quantification of myocardial infarction and inflammatory cell infiltration in rat cardial tissue, J. Pharmacol. Methods, 20(3): 225–235, 1988). For this purpose, the heart was extracted and rinsed in physiological solution, which was cooled to 0° C. After rinsing, a section of myocardium (1 g of the tissue) in the central zone of ischemia was cut out and frozen to −30° C. The final fraction was prepared as a 10% haemogenate with extractive buffer containing 0.5% hexadecyltrimethyl ammonium bromide (pH 6.0) at room temperature. […]
The upper fraction (30 microliters) was used for a reaction with 0.167 mg/ml of O-dianisodine in 50 millimole/l of potassium phosphate buffer (pH 6.0). […] The reaction had been continuously tested for 5 minutes at 460 hm wave length, and with readings taken every minute. A chart indicating the readings was prepared. A unit of MPA was defined as the quantity of ferment, which destroys 1 micromole/min H2O2 at 25° C. The data was calculated as MPA per 1 gram of tissue. […]

## CC(=O)Oc1ccccc1C(=O)O [Aspirin, aspirin]
Human thrombocytes
  inhibition of thrombocyte aggregation (index of aggregation), M: 38.66%
[1]
  % inhibition of swelling: 18.03%
[1]; listed as aspirin
  % inhibition of swelling: 18.03%
[1]; 0.4 mg per mouse intra-abdominally, 4 hours after carrageenan, Control + LPS 43.31
  increase of mass of the swollen leg: 35.5 +
NO-synthetase (NOS) [2]
  activity of NOS in blood plasma, M: 42.24 picomol per 1 min per 1 mg of protein
NO-synthetase (NOS) [3]
  activity of NOS in erythrocytes, M: 3.613 picomol per 1 min per 1 mg of protein
Free arachidonic acid
  content of free arachidonic acid in blood plasma: 2.64 nanomol per 1 mg of protein
Thromboxane B2
  content of thromboxane B2 in blood plasma: 153.903 picomol per 1 mg of protein
Leukotriene C4
  content of leukotriene C4 in blood plasma: 93.99 picomol per 1 mg of protein
myeloperoxydase
  activity of myeloperoxydase in ischemized myocardium: 176.1+5.9 units per 1 g of tissue

Source: patent publication US7153839B2, “Method of protecting erythricytes, in particular for improvement of blood cytopenia” (Biocell Laboratories, priority 2000, dated 2006)
